According to patent US20170247336A1 (MERCK SHARP & DOHME CORP., priority 2014, published 2017):
Where a name gives a salt, the structure may show the parent alone.

These compounds were tested against T1, human HIF-PHD2 (Homo sapiens, UniProt Q9GZT9) (assay: HIF-PHD2 inhibition: hydroxylation of HIF-1α peptide, time resolved fluorescence). Conditions: FLAG-tagged full length PHD2; 0.2 μM 2-oxoglutarate, 0.5 μM HIF-1α peptide.
T1 construct: FLAG-tagged full length PHD2 expressed in and purified from baculovirus-infected Sf9 cells; FLAG; made in house; host or cells: baculovirus-infected Sf9 cells
Format: biochemical
Protocol: To each well of a 384-well plate, 1 μL of test compounds in DMSO (final concentration ranging from 0.3 nM to 10 μM) were added into 20 μl of assay buffer (50 mM Tris pH 7.4/0.01% Tween-20/0.1 mg/ml bovine serum albumin/10 μM ferrous sulfate/1 mM sodium ascorbate/20 μg/ml catalase) containing 0.15 μg/ml FLAG-tagged full length PHD2 expressed in and purified from baculovirus-infected Sf9 cells. After a 5 min preincubation at room temperature, the enzymatic reactions were initiated by the addition of 4 μL of substrates {final concentrations of 0.2 μM 2-oxoglutarate and 0.5 μM HIF-1α peptide biotinyl-DLDLEMLAPYIPMDDDFQL (SEQ ID NO: 1)}. After incubation for 45 minutes at room temperature, the reactions were terminated by the addition of a 25 μL quench/detection mix to a final concentration of 1 mM ortho-phenanthroline, 0.1 mM EDTA, 0.5 nM anti-(His)6 LANCE reagent (Perkin-Elmer Life Sciences), 100 nM AF647-labeled streptavidin (Invitrogen), and 2 μg/ml (His)6-VHL complex {S. Tan Protein Expr. Purif. 21, 224-234 (2001)} and the signals were developed for 30 minutes at room temperature. The ratio of time resolved fluorescence signals at 665 and 620 nm was determined, and percent inhibition was calculated relative to the high control samples (DMSO treated) run in parallel, after background subtraction.

T1 sequence (Q9GZT9 whole entry): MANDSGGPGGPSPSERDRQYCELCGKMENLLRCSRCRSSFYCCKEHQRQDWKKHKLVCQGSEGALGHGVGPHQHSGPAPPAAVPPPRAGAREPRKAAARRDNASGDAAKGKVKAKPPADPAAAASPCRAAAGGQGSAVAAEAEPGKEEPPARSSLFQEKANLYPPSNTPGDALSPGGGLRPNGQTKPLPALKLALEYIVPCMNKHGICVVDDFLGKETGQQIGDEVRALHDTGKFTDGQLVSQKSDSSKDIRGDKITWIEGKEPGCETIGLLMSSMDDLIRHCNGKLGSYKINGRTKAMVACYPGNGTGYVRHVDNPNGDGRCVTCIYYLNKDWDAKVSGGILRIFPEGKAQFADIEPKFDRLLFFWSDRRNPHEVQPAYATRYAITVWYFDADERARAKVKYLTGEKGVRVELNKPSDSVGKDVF

| SMILES | IC50 [nM] |
| --- | --- |
| COc1ccc(-c2ccc(C(C)(C)NC(=O)c3cnc(C(=O)NCC(C)C(=O)O)nc3O)cn2)cc1 (single isomer, unassigned) [Example 19, (R) or (S)-3-(4-hydroxy-5-((2-(6-(4-methoxyphenyl)pyridin-3-yl)propan-2-yl)carbamoyl)pyrimidine-2-carboxamido)-2-methylpropanoic acid] | 2.8 |
| COc1ccc([C@@H](NC(=O)c2cnc(C(=O)NC[C@@H](O)C(=O)O)nc2O)c2ccccc2)cc1 [Example 10, (R)-2-Hydroxy-3-(4-hydroxy-5-(((S)-(4-methoxyphenyl) (phenyl)methyl)carbamoyl)pyrimidine-2-carboxamido)propanoic acid] | 6.8 |
| COc1ccc(C(NC(=O)c2cnc(C(=O)NCCC(=O)O)nc2O)c2ccc(OC)nc2)cn1 [Example 41, 3-(5-((bis(6-methoxypyridin-3-yl)methyl)carbamoyl)-4-hydroxypyrimidine-2-carboxamido)propanoic acid] | 0.8 |
| O=C(O)CCNC(=O)c1ncc(C(=O)NC(c2ccc(Br)cc2)C(F)(F)F)c(O)n1 (stereo not drawn) [Example 47, 3-(5-((1-(4-bromophenyl)-2,2,2-trifluoroethyl)carbamoyl)-4-hydroxypyrimidine-2-carboxamido)propanoic acid] | 1.1 |
| CC(CNC(=O)c1ncc(C(=O)NC(C)(C)c2ccc(-c3ccc(F)cc3)cc2)c(O)n1)C(=O)O (single isomer, unassigned) [Example 24, (R) or (S)-3-(5-((2-(4′-fluoro-[1,1′-biphenyl]-4-yl)propan-2-yl)carbamoyl)-4-hydroxypyrimidine-2-carboxamido)-2-methylpropanoic acid] | 4.8 |
| CC(CNC(=O)c1ncc(C(=O)NC(C)(C)c2ccc(-c3ccc(OC(F)(F)F)cc3)cc2)c(O)n1)C(=O)O (single isomer, unassigned) [Example 25, (R) or (S)-3-(4-hydroxy-5-((2-(4′-(trifluoromethoxy)-[1,1′-biphenyl]-4-yl)propan-2-yl)carbamoyl)pyrimidine-2-carboxamido)-2-methylpropanoic acid] | 13 |
| COc1ccc(C(NC(=O)c2cnc(C(=O)NCCC(=O)O)nc2O)c2ccccc2)cc1 (stereo not drawn) [Example 38] | 0.9 |
| CC(NC(=O)c1cnc(C(=O)NCCC(=O)O)nc1O)c1ccc(Oc2ccccc2)cc1 (stereo not drawn) [Example 46, 3-(4-hydroxy-5-((1-(4-phenoxyphenyl)ethyl)carbamoyl)pyrimidine-2-carboxamido)propanoic acid] | 1 |
| COc1ccc(C(NC(=O)c2cnc(C(=O)NCC(C)C(=O)O)nc2O)c2ccc(OC)cc2)cc1 (single isomer, unassigned) [Example 18, (R) or (S)-3-(5-((bis(4-methoxyphenyl)methyl)carbamoyl)-4-hydroxypyrimidine-2-carboxamido)-2-methylpropanoic acid] | 15 |
| N#Cc1ccc(C(NC(=O)c2cnc(C(=O)NC[C@@H](O)C(=O)O)nc2O)c2ccccc2)cc1 (single isomer, unassigned) [Example 8] | 6.8 |
| CC(CNC(=O)c1ncc(C(=O)NC(C)(C)c2ccc(-c3cccc4cnccc34)cc2)c(O)n1)C(=O)O (single isomer, unassigned) [Example 21, (R) or (S)-2-((2-carboxypropyl)carbamoyl)-6-hydroxy-5-((2-(4-(isoquinolin-5-yl)phenyl)propan-2-yl)carbamoyl)pyrimidin-1-ium formate] | 4.8 |
| O=C(O)CCNC(=O)c1ncc(C(=O)NC(c2ccccc2)c2ccc(C(F)(F)F)cc2)c(O)n1 (stereo not drawn) [Example 49, 3-(4-hydroxy-5-((phenyl(4-(trifluoromethyl)phenyl)methyl)carbamoyl)pyrimidine-2-carboxamido)propanoic acid] | 1 |
| Cc1cc(C#N)ccc1-c1ccc(C(C)(C)NC(=O)c2cnc(C(=O)NCC(C)C(=O)O)nc2O)cc1 (single isomer, unassigned) [Example 23, (R) or (S)-3-(5-((2-(4′-cyano-2′-methyl-[1,1′-biphenyl]-4-yl)propan-2-yl)carbamoyl)-4-hydroxypyrimidine-2-carboxamido)-2-methylpropanoic acid] | 12 |
| N#Cc1ccc(C(NC(=O)c2cnc(C(=O)NC[C@@H](O)C(=O)O)nc2O)c2ccccc2)cc1 (single isomer, unassigned) [Example 9] | 27.2 |
| O=C(O)CCNC(=O)c1ncc(C(=O)NC(c2ccc(Cl)cc2)c2ccc(C(F)(F)F)cc2)c(O)n1 (stereo not drawn) [Example 40, 3-(5-(((4-chlorophenyl)(4-(trifluoromethyl)phenyl)methyl)carbamoyl)-4-hydroxypyrimidine-2-carboxamido)propanoic acid] | 0.9 |
| COc1ccc([C@H](NC(=O)c2cnc(C(=O)NC[C@@H](O)C(=O)O)nc2O)c2ccccc2)cc1 [Example 12, (R)-2-hydroxy-3-(4-hydroxy-5-(((R)-(4-methoxyphenyl)(phenyl)methyl)carbamoyl)pyrimidine-2-carboxamido)propanoic acid] | 8.7 |
| O=C(O)CCNC(=O)c1ncc(C(=O)NC(c2ccc(Cl)cc2)c2ccc(Cl)cc2)c(O)n1 [Example 42, 3-(5-((bis(4-chlorophenyl)methyl)carbamoyl)-4-hydroxypyrimidine-2-carboxamido)propanoic acid] | 0.5 |
| CC(CNC(=O)c1ncc(C(=O)NC(C)(C)c2ccc(-c3ccc(Cl)cc3)cc2)c(O)n1)C(=O)O (single isomer, unassigned) [Example 28, (R) or (S)-3-(5-((2-(4′-chloro-[1,1′-biphenyl]-4-yl)propan-2-yl)carbamoyl)-4-hydroxypyrimidine-2-carboxamido)-2-methylpropanoic acid] | 5.9 |
| CNc1ccc(C(NC(=O)c2cnc(C(=O)NCCC(=O)O)nc2O)c2ccc(OC)cc2)cn1 (single isomer, unassigned) [Example 34, (R) or (S)-3-(4-hydroxy-5-(((4-methoxyphenyl)(6-(methylamino)pyridin-3-yl)methyl)carbamoyl)pyrimidine-2-carboxamido)propanoic acid] | 0.58 |
| CC(CNC(=O)c1ncc(C(=O)NC2(c3ccc(-c4ccc(F)cc4)cc3)CC2)c(O)n1)C(=O)O (single isomer, unassigned) [Example 32, (R) or (S)-3-(5-((1-(4′-fluoro-[1,1′-biphenyl]-4-yl)cyclopropyl)carbamoyl)-4-hydroxypyrimidine-2-carboxamido)-2-methylpropanoic acid] | 12 |
| COc1ccc(-c2ccc(C3(NC(=O)c4cnc(C(=O)NCC(C)C(=O)O)nc4O)CC3)cc2)cn1 (single isomer, unassigned) [Example 33, (R) or (S)-2-((2-carboxypropyl)carbamoyl)-6-hydroxy-5-((1-(4-(6-methoxypyridin-3-yl)phenyl)cyclopropyl)carbamoyl)pyrimidin-1-ium chloride] | 4.3 |
| CC(C)(NC(=O)c1cnc(C(=O)NC[C@@H](O)C(=O)O)nc1O)c1ccc(C(F)(F)F)cc1 [Example 11, (R)-2-hydroxy-3-(4-hydroxy-5-((2-(4-(trifluoromethyl)phenyl)propan-2-yl)carbamoyl)pyrimidine-2-carboxamido)propanoic acid] | 1.5 |
| COc1ccc(C(NC(=O)c2cnc(C(=O)NCCC(=O)O)nc2O)c2ccc(OC)cc2)cc1 [Example 48, 3-(5-((bis(4-methoxyphenyl)methyl)carbamoyl)-4-hydroxypyrimidine-2-carboxamido)propanoic acid] | 0.7 |
| CC(CNC(=O)c1ncc(C(=O)NC(C)(C)c2ccc(-c3cccnc3)cc2)c(O)n1)C(=O)O (single isomer, unassigned) [Example 22, (R) or (S)-2-((2-carboxypropyl)carbamoyl)-6-hydroxy-5-((2-(4-(pyridin-3-yl)phenyl)propan-2-yl)carbamoyl)pyrimidin-1-ium formate] | 3 |
| COc1ccc([C@@H](NC(=O)c2cnc(C(=O)NCCC(=O)O)nc2O)c2ccc(Cl)cc2)cc1 [Example 35, (R)-3-(5-(((4-chlorophenyl)(4-methoxyphenyl)methyl)carbamoyl)-4-hydroxypyrimidine-2-carboxamido)propanoic acid] | 0.9 |
| CC(CNC(=O)c1ncc(C(=O)NC(C)(C)c2ccc(-c3ccc(C(F)(F)F)cc3)cc2)c(O)n1)C(=O)O (single isomer, unassigned) [Example 20, (R) or (S)-3-(4-hydroxy-5-((2-(4′-(trifluoromethyl)-[1,1′-biphenyl]-4-yl)propan-2-yl)carbamoyl)pyrimidine-2-carboxamido)-2-methylpropanoic acid] | 8.1 |
| CC(CNC(=O)c1ncc(C(=O)NC2(c3ccc(-c4ccc(Cl)cc4)cc3)CC2)c(O)n1)C(=O)O (single isomer, unassigned) [Example 30, (R) or (S)-3-(5-((1-(4′-chloro-[1,1′-biphenyl]-4-yl)cyclopropyl)carbamoyl)-4-hydroxypyrimidine-2-carboxamido)-2-methylpropanoic acid] | 13 |
